Drawing on PubChem BioAssay (NCI), this text covers GI50 and TGI for 14 compounds.

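Tested at 5 concentrations; 48 h exposure; 96-well plates; endpoints linearly interpolated, else capped at highest concentration. GI50 marks 50% less growth. Definition used: TGI = concentration required for complete inhibition of growth.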

Some test systems named below: A549 NSCLC; A498 renal; PC-3 prostate; HT29 colon; DU-145 prostate; TK-10 renal; HS 578T breast; M14 melanoma; CAKI-1 renal; HCT-116 colon.
What all share (assay): DTP human tumour cell line panel, 48 h

On to `CC(C)(C)OC(=O)N1Cc2cc3ccccc3nc2C1CO` (configuration not stated), for which the GI50 with A549 NSCLC, in the test with A498 renal, with PC-3 prostate, with HT29 colon, in the test on DU-145 prostate and with TK-10 renal was greater than 100 µM throughout. In addition, the GI50 in the test on HS 578T breast, in the test on M14 melanoma, with CAKI-1 renal and in the test with HCT-116 colon was greater than 100 µM each time. Also, the TGI in the test on A549 NSCLC, with A498 renal, in the test on PC-3 prostate, in the test with HT29 colon, with DU-145 prostate and in the test with TK-10 renal was greater than 100 µM each time. Moreover, the TGI in the test with HS 578T breast, in the test on M14 melanoma, in the test on CAKI-1 renal and in the test with HCT-116 colon was greater than 100 µM in each case.
Take `Cc1cn(C2CC(O)C(COC(N)=O)O2)c(=O)[nH]c1=O` (configuration not stated): the TGI with A549 NSCLC, in the test with A498 renal, in the test with PC-3 prostate, with HT29 colon, with DU-145 prostate and in the test with TK-10 renal was greater than 100 µM throughout. The TGI with HS 578T breast, with M14 melanoma, in the test with CAKI-1 renal and in the test on HCT-116 colon was greater than 100 µM throughout.
As to `CCN(CC)CCCC(C)Nc1ccnc(/C=C/c2ccc(Cl)cc2)c1` (configuration not stated), the total growth inhibition concentration (TGI) is 4.79 µM in the test on A549 NSCLC; 5.2 µM in the test with A498 renal; 10.7 µM in the test on PC-3 prostate; 6.44 µM with HT29 colon; 17.6 µM with DU-145 prostate; 4.8 µM in the test with TK-10 renal. Further, the concentration for total growth inhibition (TGI) with HS 578T breast came out at 5.81 µM; with M14 melanoma it was 2.74 µM; in the test on CAKI-1 renal it was 4.11 µM; in the test on HCT-116 colon, 3.22 µM. Besides, the GI50 with A498 renal was 1.62 µM.
Regarding `CC(=N\O)/C(C)=N/O.CC(=N\O)/C(C)=N/O.[Fe].[NH2-].c1c[nH]cn1`, the GI50 in the test on A549 NSCLC, in the test with A498 renal, in the test on PC-3 prostate, with HT29 colon, with DU-145 prostate and with TK-10 renal was greater than 100 µM in each case. For the same compound, the GI50 with HS 578T breast, in the test on M14 melanoma, with CAKI-1 renal and in the test with HCT-116 colon was greater than 100 µM each time. Further, the total growth inhibition concentration (TGI) in the test with A549 NSCLC, in the test on A498 renal, in the test with PC-3 prostate, with HT29 colon, in the test with DU-145 prostate and in the test on TK-10 renal was greater than 100 µM each time. Also, the concentration for total growth inhibition (TGI) with HS 578T breast, in the test on M14 melanoma, in the test on CAKI-1 renal and in the test with HCT-116 colon was greater than 100 µM each time.
In the case of `NS(=O)(=O)c1cc(C(=O)O)c(Cl)c([N+](=O)[O-])c1Cl`, the concentration for total growth inhibition (TGI) in the test on A549 NSCLC, in the test on A498 renal, with PC-3 prostate, in the test on HT29 colon, with DU-145 prostate and in the test on TK-10 renal was greater than 100 µM throughout. In addition, the concentration for total growth inhibition (TGI) with HS 578T breast, with M14 melanoma, in the test on CAKI-1 renal and with HCT-116 colon was greater than 100 µM throughout.
For the compound `c1ccc2c(c1)[nH]c1c3ccccc3sc21`, the total growth inhibition concentration (TGI) with A549 NSCLC, with A498 renal, with PC-3 prostate, in the test on HT29 colon, in the test with DU-145 prostate and in the test with TK-10 renal was greater than 100 µM in each case. Moreover, the total growth inhibition concentration (TGI) with HS 578T breast, in the test with M14 melanoma, in the test with CAKI-1 renal and in the test with HCT-116 colon was greater than 100 µM each time.
Consider `COC(=O)[C@H](CCCCNC(=O)OCc1ccccc1)NC(=O)[C@@H](NC(=O)Nc1cc(C(F)(F)F)cc(C(F)(F)F)c1)C(C)C`, for which the GI50 in the test on A549 NSCLC, in the test on A498 renal, in the test on PC-3 prostate, in the test with HT29 colon, in the test with DU-145 prostate and in the test with TK-10 renal was greater than 10 µM each time. The GI50 with HS 578T breast, with M14 melanoma, with CAKI-1 renal and in the test with HCT-116 colon was greater than 10 µM each time. Moreover, the TGI in the test with A549 NSCLC, with A498 renal, with PC-3 prostate, in the test with HT29 colon, with DU-145 prostate and in the test on TK-10 renal was greater than 10 µM in each case. The concentration for total growth inhibition (TGI) in the test on HS 578T breast, in the test with M14 melanoma, with CAKI-1 renal and in the test on HCT-116 colon was greater than 10 µM each time.
For the compound `O=C(CC1Sc2ccccc2NC1=O)NNc1ccc(F)cc1` (configuration not stated), the GI50 is 74 µM in the test with A549 NSCLC; 83.5 µM in the test on A498 renal; 64.1 µM in the test with PC-3 prostate; greater than 100 µM with HT29 colon; 57 µM with DU-145 prostate; greater than 100 µM with TK-10 renal. Besides, the GI50 was 72.4 µM in the test on HS 578T breast, 5.5 µM with M14 melanoma, 42.5 µM with CAKI-1 renal and 77.3 µM in the test on HCT-116 colon. The TGI in the test with A549 NSCLC, in the test on A498 renal, with PC-3 prostate, with HT29 colon, in the test on DU-145 prostate and with TK-10 renal was greater than 100 µM each time. The TGI in the test on HS 578T breast, with M14 melanoma, in the test with CAKI-1 renal and in the test with HCT-116 colon was greater than 100 µM each time.
In the case of `C=C1C(=O)O[C@H]2[C@H]1CC/C(COC(=O)/C=C\C(=O)NCc1ccc(Cn3c(=O)sn(-c4ccc(Cl)cc4)c3=O)cc1)=C\CC[C@@]1(C)O[C@@H]21`, the GI50 is 0.871 µM in the test on A549 NSCLC; 0.741 µM with A498 renal; 0.599 µM with PC-3 prostate; 0.369 µM in the test with HT29 colon; 0.638 µM in the test on DU-145 prostate; 0.775 µM in the test with TK-10 renal. Moreover, the GI50 is 0.954 µM with HS 578T breast, 0.639 µM in the test on M14 melanoma, 0.328 µM in the test with CAKI-1 renal and 0.144 µM in the test with HCT-116 colon. In addition, the TGI with A549 NSCLC turned out to be 2.35 µM; in the test on A498 renal, 1.43 µM; in the test with PC-3 prostate, 1.39 µM; with HT29 colon, 1.52 µM; in the test on DU-145 prostate it was 1.3 µM; in the test on TK-10 renal it was 1.5 µM. Besides, the TGI with HS 578T breast came to 2.64 µM; in the test with M14 melanoma it was 1.48 µM; in the test with CAKI-1 renal, 1.03 µM; in the test on HCT-116 colon, 0.708 µM.
`O=c1[nH]c(=O)n(C2OC(CO)C(O)C2O)cc1F` (configuration not stated): the concentration for total growth inhibition (TGI) in the test with A549 NSCLC is 38.4 µM; in the test on A498 renal, 5.61 µM; with PC-3 prostate, greater than 100 µM; in the test on HT29 colon, greater than 100 µM; in the test on DU-145 prostate, greater than 100 µM; with TK-10 renal, greater than 62.2 µM. Also, the total growth inhibition concentration (TGI) was greater than 100 µM in the test on HS 578T breast, greater than 75.8 µM in the test with M14 melanoma, 18.1 µM in the test with CAKI-1 renal and 7.27 µM with HCT-116 colon. Moreover, the GI50 with A498 renal is 0.0876 µM; with HT29 colon, 0.0697 µM; in the test with HS 578T breast it was 0.031 µM; with M14 melanoma, 0.0819 µM; with CAKI-1 renal, 0.0104 µM; with HCT-116 colon, 0.00778 µM.
In the case of `CCSCCCC(=O)O`, the TGI in the test with A549 NSCLC, in the test with A498 renal, in the test on PC-3 prostate, in the test with HT29 colon, in the test on DU-145 prostate and in the test on TK-10 renal was greater than 100 µM each time. Also, the total growth inhibition concentration (TGI) in the test on HS 578T breast, in the test with M14 melanoma, with CAKI-1 renal and with HCT-116 colon was greater than 100 µM each time.
Regarding `Nc1nc(N)c(-c2ccc(Cl)c(Cl)c2)c(CP(Cl)(Cl)(Cl)Br)n1`, the GI50 in the test on A549 NSCLC was 5.37 µM; in the test on A498 renal, 22.9 µM; in the test on PC-3 prostate it was 5.31 µM; with HT29 colon, 6.14 µM; in the test on DU-145 prostate, 9.33 µM; with TK-10 renal, 29.6 µM. For the same compound, the GI50 is 24.4 µM in the test with HS 578T breast, 6.62 µM with M14 melanoma, 14.7 µM with CAKI-1 renal and 3.52 µM with HCT-116 colon. The concentration for total growth inhibition (TGI) with A549 NSCLC, in the test on A498 renal, in the test on PC-3 prostate, in the test with HT29 colon, in the test on DU-145 prostate and in the test on TK-10 renal was greater than 100 µM in each case. For the same compound, the TGI in the test on HS 578T breast, in the test on M14 melanoma, in the test with CAKI-1 renal and in the test with HCT-116 colon was greater than 100 µM in each case.
Turning to `COc1ccc(C(Nc2ccccn2)c2cc(C(C)(C)C)cc(C(C)(C)C)c2O)cc1` (configuration not stated), the TGI with A549 NSCLC, in the test with A498 renal, in the test on PC-3 prostate, in the test on HT29 colon, with DU-145 prostate and in the test on TK-10 renal was greater than 100 µM in each case. Further, the concentration for total growth inhibition (TGI) is greater than 100 µM in the test on HS 578T breast, 54.9 µM with M14 melanoma, greater than 100 µM in the test on CAKI-1 renal and greater than 100 µM in the test with HCT-116 colon.
For `O=C(O)c1[nH]c2c([N+](=O)[O-])cc([N+](=O)[O-])cc2c1C(=O)O`, the TGI in the test with A549 NSCLC, in the test with A498 renal, in the test with PC-3 prostate, with HT29 colon, in the test on DU-145 prostate and in the test with TK-10 renal was greater than 100 µM throughout. The total growth inhibition concentration (TGI) in the test with HS 578T breast, in the test with M14 melanoma, in the test with CAKI-1 renal and with HCT-116 colon was greater than 100 µM each time.

For orientation: GI50 means the concentration giving 50% growth inhibition. In general, TGI refers to the concentration giving total growth inhibition.
